Values quoted from earlier work as cited in article PMC4148150 (Journal of Medicinal Chemistry, 2014).

Details: mice, oral dosing

Structure (SMILES) | PK-AUC [µM·h]
CC(=O)N1CCC(NC(=O)NC23CC4CC(CC(C4)C2)C3)CC1 [APAU, 1-(1-acetypiperidin-4-yl)-3-adamantanylurea] | 0.183
CS(=O)(=O)N1CCC(NC(=O)Nc2ccc(OC(F)(F)F)cc2)CC1 [TUPS, 1-(1-methylsulfonyl-piperidin-4-yl)-3-(4-trifluoromethoxyphenyl)-urea] | 5.3
